In assay [1] the target is T1, HCV polymerase 1A (Δ21 NS5B, H77) (Hepatitis C virus genotype 1a, UniProt P27958).
T1 construct: 20 to 50 nM Δ21 NS5B
As to the kind of experiment: biochemical. The conditions noted are these: IC50 1a. The procedure, abridged: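 Incorporation of 1 μM ^3H-UTP, with 20 μM each of CTP and ATP on 5 nM template RNA, ran 2–4 h at room temperature. Spermine-precipitated product was filtered and scintillation-counted. IC50 came from tight-binding non-linear regression of cpm against inhibitor concentration.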

Assay [2] concerns genotype 1a-H77 subgenomic replicon cell line. As to the kind of experiment: microbe, parasite or virus in culture. The conditions noted are these: Hepatitis C virus, read-out: EC50 1a. Format: cell-based, HCV.
In assay [3] the test system is genotype 1b-Con1 subgenomic replicon cell line. As to the kind of experiment: microbe, parasite or virus in culture. Format: cell-based, HCV. The conditions noted are these: Hepatitis C virus, read-out: EC50 1b.
Assay [4] addresses T2, HCV polymerase 1B (Δ21 NS5B, BK) (Hepatitis C virus genotype 1b, UniProt P26663).
T2 construct: 20 to 50 nM Δ21 NS5B
The experiment in a line: biochemical. The method in brief:
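Δ21 NS5B (genotype 1b, BK […]) preincubated 15 min RT with inhibitor, 2 mM MnCl2, pH 7.4, 60–125 μM GTP; started with 20 μM CTP/ATP, 1 μM 3H-UTP, 5 nM template RNA, run 2–4 h RT. Spermine-precipitated RNA filter-captured, scintillation counted; IC50 from tight-binding (Morrison) fit.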

Bounds are passed on as bounds.

The record followed here is patent publication US8415351B2 (priority 2007, dated 2013).

A word on the IC50: it is the concentration that inhibits the measured activity by half. High values mean weaker potency in that assay, low ones greater potency in that assay. For orientation: EC50 means the concentration that produces a half-maximal response.

T2 sequence (P26663 2420-2989, stated change not applied): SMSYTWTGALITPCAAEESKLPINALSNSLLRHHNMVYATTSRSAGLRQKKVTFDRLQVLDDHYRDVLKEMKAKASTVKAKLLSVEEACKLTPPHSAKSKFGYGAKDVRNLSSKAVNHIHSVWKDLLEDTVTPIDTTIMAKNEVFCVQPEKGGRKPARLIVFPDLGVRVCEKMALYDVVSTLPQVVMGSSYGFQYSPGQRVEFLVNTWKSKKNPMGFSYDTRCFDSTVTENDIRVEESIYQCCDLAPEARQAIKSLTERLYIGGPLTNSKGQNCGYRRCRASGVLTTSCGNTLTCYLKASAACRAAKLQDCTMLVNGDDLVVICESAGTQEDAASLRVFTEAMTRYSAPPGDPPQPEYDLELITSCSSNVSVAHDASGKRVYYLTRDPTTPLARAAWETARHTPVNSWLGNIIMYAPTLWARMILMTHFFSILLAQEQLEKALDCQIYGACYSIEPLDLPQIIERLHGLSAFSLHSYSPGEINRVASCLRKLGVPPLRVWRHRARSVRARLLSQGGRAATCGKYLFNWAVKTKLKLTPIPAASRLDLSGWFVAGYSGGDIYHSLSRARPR
T1 sequence (P27958 2421-2990, stated change not applied): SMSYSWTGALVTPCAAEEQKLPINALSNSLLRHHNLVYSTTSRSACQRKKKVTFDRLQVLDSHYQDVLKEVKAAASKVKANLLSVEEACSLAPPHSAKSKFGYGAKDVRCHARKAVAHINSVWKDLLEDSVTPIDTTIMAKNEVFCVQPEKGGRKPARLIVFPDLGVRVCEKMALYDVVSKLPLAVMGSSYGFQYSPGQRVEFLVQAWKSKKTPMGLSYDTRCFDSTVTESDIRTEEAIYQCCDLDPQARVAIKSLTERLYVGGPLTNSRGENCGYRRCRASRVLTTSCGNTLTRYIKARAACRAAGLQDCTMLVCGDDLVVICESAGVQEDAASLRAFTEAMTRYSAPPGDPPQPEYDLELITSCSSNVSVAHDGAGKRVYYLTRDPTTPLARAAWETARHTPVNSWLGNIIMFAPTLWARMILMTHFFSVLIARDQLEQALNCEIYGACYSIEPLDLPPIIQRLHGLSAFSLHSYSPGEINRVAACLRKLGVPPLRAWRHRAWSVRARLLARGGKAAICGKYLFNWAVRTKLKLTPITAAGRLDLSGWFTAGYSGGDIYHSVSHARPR

On to `COc1c(C(=O)Nc2ccc3c(c2)CC(=O)N3)cc(N2CCC(=O)NC2=O)cc1C(C)(C)C` [IA-L3-2.2, 3-tert-butyl-5-(2,4-dioxotetrahydropyrimidin-1(2H)-yl)-2-methoxy-N-(2-oxoindolin-5-yl)benzamide], for which the IC50 in assay [1] and in assay [4] was 100 to 1000 nM in each case. Moreover, the EC50 in assay [2] and in assay [3] was more than 1000 nM each time.
On to `CC(C)(C)c1cc(N2CCC(=O)NC2=O)cc(C(=O)Nc2cccc(CNS(C)(=O)=O)c2)c1O` [IA-L3-1.11, 3-tert-butyl-5-(2,4-dioxotetrahydropyrimidin-1(2H)-yl)-2-hydroxy-N-(3-(methylsulfon-amidomethyl)phenyl)benzamide], for which the results for the IC50 in assay [1] and in assay [4] were more than 1000 nM and 100 to 1000 nM, respectively. Further, the EC50 in assay [2] and in assay [3] was more than 1000 nM in each case.
Take `COc1c(C(=O)Nc2ccc(NS(=O)(=O)c3c(C)noc3C)cc2)cc(N2CCC(=O)NC2=O)cc1C(C)(C)C` [IA-L3-1.59, 3-tert-butyl-N-[4-(3,5-dimethyl-isoxazole-4-sulfonylamino)-phenyl]-5-(2,4-dioxo-tetrahydro-pyrimidin-1-yl)-2-methoxy-benzamide]: the IC50 lay within 100 to 1000 nM in assay [1] and 10 to 100 nM in assay [4]. For the same compound, the EC50 in assay [2] and in assay [3] was more than 1000 nM throughout.
Regarding `COc1c(C#Cc2ccc(NS(C)(=O)=O)cc2C)cc(N2CCC(=O)NC2=O)cc1C(C)(C)C` [IA-L2-1.9, N-(4-((3-tert-butyl-5-(2,4-dioxotetrahydropyrimidin-1(2H)-yl)-2-methoxyphenyl)ethynyl)-3-methylphenyl)methanesulfonamide], the IC50 in assay [1] and in assay [4] was less than 10 nM in each case. Further, the EC50 in assay [2] and in assay [3] was less than 10 nM each time.
On to `CC(C)(C)c1cc(N2CCC(=O)NC2=O)cc(C(=O)Nc2ccc(S(C)(=O)=O)cc2)c1O` [IA-L3-1.21, 3-tert-butyl-5-(2,4-dioxotetrahydropyrimidin-1(2H)-yl)-2-hydroxy-N-(4-(methylsulfonyl)phenyl)benzamide], for which the IC50 in assay [1] was more than 1000 nM; in assay [4] it was 100 to 1000 nM. Moreover, the EC50 in assay [2] and in assay [3] was more than 1000 nM each time.
`CC(C)(C)c1cc(N2CCC(=O)NC2=O)cc(C(=O)Nc2ccc(NS(=O)(=O)c3ccccc3)cc2)c1O` [IA-L3-1.10, 3-tert-butyl-5-(2,4-dioxotetrahydropyrimidin-1(2H)-yl)-2-hydroxy-N-(4-(phenylsulfon-amido)phenyl)benzamide]: the IC50 in assay [1] and in assay [4] was 10 to 100 nM each time. For the same compound, the half-maximal effective concentration (EC50) in assay [2] and in assay [3] was 100 to 1000 nM in each case.
Take `CC(C)(C)c1cc(N2CCC(=O)NC2=O)cc(NC(=O)c2ccc(NS(C)(=O)=O)cc2)c1O` [IA-L4-1.3, N-(3-tert-butyl-5-(2,4-dioxotetrahydropyrimidin-1(2H)-yl)-2-hydroxyphenyl)-4-(methylsulfon amido)benzamide]: the IC50 in assay [1] and in assay [4] was 100 to 1000 nM each time. For the same compound, the EC50 in assay [2] and in assay [3] was more than 1000 nM each time.
In the case of `CCC(=O)N(c1ccc(NC(=O)c2cc(N3CCC(=O)NC3=O)cc(C(C)(C)C)c2OC)cc1)S(C)(=O)=O` [IA-L3-1.70, 3-tert-butyl-5-(2,4-dioxotetrahydropyrimidin-1(2H)-yl)-2-methoxy-N-(4-(N-(methylsulfonyl)propionamido)phenyl)benzamide], the IC50 in assay [1] and in assay [4] was more than 1000 nM each time. Also, the EC50 in assay [2] lay within 100 to 1000 nM; in assay [3] it was 10 to 100 nM.
Take `COc1c(C(=O)Nc2ccc(NS(=O)(=O)CC(C)C)cc2)cc(N2CCC(=O)NC2=O)cc1C(C)(C)C` [IA-L3-1.52, 3-tert-butyl-5-(2,4-dioxotetrahydropyrimidin-1(2H)-yl)-2-methoxy-N-(4-(2-methylpropyl-sulfonamido)phenyl)benzamide]: the IC50 in assay [1] and in assay [4] was 100 to 1000 nM each time. Besides, the EC50 is more than 1000 nM in assay [2] and 100 to 1000 nM in assay [3].
Take `CC(C)(C)c1cc(N2CCC(=O)NC2=O)cc(C(=O)Nc2ccc3c(c2)CS(=O)(=O)C3)c1O` [IA-L3-2.5, 3-tert-butyl-N-(2,2-dioxo-1,3-dihydrobenzo[c]thiophen-5-yl)-5-(2,4-dioxotetrahydropyrimidin-1(2H)-yl)-2-hydroxybenzamide]: the IC50 was more than 1000 nM in assay [1] and 100 to 1000 nM in assay [4]. Moreover, the EC50 in assay [2] and in assay [3] was more than 1000 nM each time.
For `COc1c(C(=O)Nc2ccc(NS(C)(=O)=O)cc2)cc(N2CCC(=O)NC2=O)cc1C(C)(C)C` [IA-L3-1.51], the IC50 in assay [1] and in assay [4] was 10 to 100 nM in each case. Moreover, the results for the EC50 in assay [2] and in assay [3] were 100 to 1000 nM and 10 to 100 nM, respectively.
Turning to `COc1c(C(=O)Nc2ccc3c(c2)CCC(=O)N3)cc(N2CCC(=O)NC2=O)cc1C(C)(C)C` [IA-L3-2.4, 3-tert-butyl-5-(2,4-dioxotetrahydropyrimidin-1(2H)-yl)-2-methoxy-N-(2-oxo-1,2,3,4-tetra hydroquinolin-6-yl)benzamide], the IC50 in assay [1] and in assay [4] was more than 1000 nM each time. The EC50 in assay [2] and in assay [3] was more than 1000 nM throughout.
With `COc1c(-c2ncc(-c3cccc(NS(C)(=O)=O)c3)o2)cc(N2CCC(=O)NC2=O)cc1C(C)(C)C` [IA-L0-1.9, N-(3-(2-(3-tert-butyl-5-(2,4-dioxotetrahydropyrimidin-1(2H)-yl)-2-methoxyphenyl)oxazol-5-yl)phenyl)methanesulfonamide], the IC50 lay in the range of 10 to 100 nM in assay [1] and 100 to 1000 nM in assay [4]. The EC50 is more than 1000 nM in assay [2] and 100 to 1000 nM in assay [3].
Turning to `Cc1noc(C)c1S(=O)(=O)Nc1ccc(NC(=O)c2cc(N3CCC(=O)NC3=O)cc(C(C)(C)C)c2O)cc1` [IA-L3-1.13, 3-tert-butyl-N-(4-(3,5-dimethylisoxazole-4-sulfonamido)phenyl)-5-(2,4-dioxotetrahydro-pyrimidin-1(2H)-yl)-2-hydroxybenzamide], the results for the IC50 in assay [1] and in assay [4] were 100 to 1000 nM and less than 10 nM, respectively. Also, the EC50 in assay [2] and in assay [3] was more than 1000 nM throughout.
Turning to `COc1c(-c2ccc3c(c2)CCC3O)cc(-n2ccc(=O)[nH]c2=O)cc1C(C)(C)C` (stereo not drawn) [IB-L0-2.36, 1-(3-tert-butyl-5-(1-hydroxy-2,3-dihydro-1H-inden-5-yl)-4-methoxyphenyl)pyrimidine-2,4(1H,3H)-dione], the IC50 in assay [1] was in the range of 10 to 100 nM; in assay [4], 100 to 1000 nM. The EC50 was in the range of 100 to 1000 nM in assay [2] and 10 to 100 nM in assay [3].
With `COc1c(C#Cc2ccc(NS(C)(=O)=O)cn2)cc(-n2ccc(=O)[nH]c2=O)cc1C(C)(C)C` [IB-L2-1.8, N-(6-((3-tert-butyl-5-(2,4-dioxo-3,4-dihydropyrimidin-1(2H)-yl)-2-methoxyphenyl)ethynyl)-pyridin-3-yl)methanesulfonamide], the IC50 in assay [1] was less than 10 nM; in assay [4] it was 10 to 100 nM. In addition, the EC50 is 10 to 100 nM in assay [2] and less than 10 nM in assay [3].
As to `COc1c(-c2ccc(/C=N/NS(C)(=O)=O)cc2)cc(N2CCC(=O)NC2=O)cc1C(C)(C)C` [IA-L0-1.1, (E)-N′-((3′-tert-butyl-5′-(2,4-dioxotetrahydropyrimidin-1(2H)-yl)-2′-methoxybiphenyl-4-yl)methylene)methanesulfonohydrazide], the figures for the IC50 in assay [1] and in assay [4] were less than 10 nM and 10 to 100 nM, respectively. The EC50 in assay [2] was 100 to 1000 nM; in assay [3] it was less than 10 nM.
On to `COc1c(-c2ccc3c(c2)CCC3NNS(C)(=O)=O)cc(-n2ccc(=O)[nH]c2=O)cc1C(C)(C)C` (stereo not drawn) [IB-L0-2.31, N′-(5-(3-tert-butyl-5-(2,4-dioxo-3,4-dihydropyrimidin-1(2H)-yl)-2-methoxyphenyl)-2,3-dihydro-1H-inden-1-yl)methanesulfonohydrazide], for which the IC50 in assay [1] and in assay [4] was 10 to 100 nM in each case. The figures for the EC50 in assay [2] and in assay [3] were 100 to 1000 nM and 10 to 100 nM, respectively.
Consider `COc1c(C(=O)Nc2cc(CN(C(=O)OC(C)(C)C)S(C)(=O)=O)cs2)cc(N2CCC(=O)NC2=O)cc1C(C)(C)C` [IA-L3-1.96, tert-butyl (5-(3-tert-butyl-5-(2,4-dioxotetrahydropyrimidin-1(2H)-yl)-2-methoxybenzamido)thiophen-3-yl)methyl(methylsulfonyl)carbamate], for which the IC50 in assay [1] is 100 to 1000 nM; in assay [4], more than 1000 nM. Further, the EC50 in assay [2] is 100 to 1000 nM; in assay [3], more than 1000 nM.
In the case of `COc1c(C#Cc2ccc(NS(C)(=O)=O)cn2)cc(N2CCC(=O)NC2=O)cc1C(C)(C)C` [IA-L2-1.25, N-(6-((3-tert-butyl-5-(2,4-dioxotetrahydropyrimidin-1(2H)-yl)-2-methoxyphenyl)ethynyl)pyridin-3-yl)methanesulfonamide], the IC50 in assay [1] is less than 10 nM; in assay [4], 10 to 100 nM. Moreover, the EC50 in assay [2] fell in the range of 100 to 1000 nM; in assay [3] it was 10 to 100 nM.
Consider `COc1c(CC(=O)c2ccc(NS(C)(=O)=O)cc2)cc(N2CCC(=O)NC2=O)cc1C(C)(C)C` [IA-L12-1.1, N-(4-(2-(3-tert-butyl-5-(2,4-dioxotetrahydropyrimidin-1(2H)-yl)-2-methoxyphenyl)acetyl)phenyl)methanesulfonamide], for which the IC50 in assay [1] and in assay [4] was 10 to 100 nM in each case. The EC50 in assay [2] lay in the range of 100 to 1000 nM; in assay [3] it was 10 to 100 nM.
